According to patent publication US7336989B2, “System and method for quantitative or qualitative measurement of exogenous substances in tissue and other materials using laser-induced fluorescence spectroscopy” (priority 2002, dated 2008):
“And” between values parts separate entries of the source, which are not always exact repeats. Identical values can stand only once.

Assay: Penetration depth of topically applied antibiotics into corneal tissue, by excimer laser ablation and laser-induced fluorescence spectroscopy with PLS model
Type: in vitro ADME
Conditions: for Antibiotic Penetration Depth (Mean): rinsed, mean of cases (SD in text)
Protocol: The second set of experiments was performed on fresh rabbit corneas. All experiments were performed in compliance with the Association for Research in Vision and Ophthalmology (ARVO) Statement on the Use of Animals in Research. Approval was obtained from the University of California, Irvine, Institutional Care and Use Committee (IACUC) and the IACUC guidelines regarding animal experimentation were followed. New Zealand White rabbit heads were obtained from an abattoir and kept at 4° C. until eyes were enucleated within 7-hours of death to maximize preservation of the corneal epithelium. The globes were stored in a moist chamber at 4° C. for approximately 4 hours until time of use.
The main component, mounted on or above an optical table 21, is the Nidek EC-5000 laser system 22 (Model EC-5000, Nidek Technologies, Inc., Japan) operating at 193 nm. The average laser energy is about 16.4 mJ/pulse measured over a period of 10-s while pulsing at 4 Hz. The eye-fixation LED and the aiming He—Ne laser within the laser system 22 are disabled to avoid their interference with the measured corneal autofluorescence.
During the experiments, the laser 22 is operated to emit a collimated laser beam 23 in the direction of a cornea 24. The laser 22 is operated in its manual mode to pulse the beam 23 at 4 Hz and generate a rectangular spot size of about 2×4.5-mm. The BNC cable connecting the control circuitry of the EC-5000 to the OEM […] excimer laser (Lambda Physik, Fort Lauderdale, Fla.) is tapped using a BNC T-adapter. […]
Each pulse of radiation emitted from the laser 22 ablates a thin layer of the cornea 24. The laser-induced fluorescence (LIF) 32 produced by the ablated cornea 24 is reflected by a 2″ off-axis parabolic mirror 34 (Al, SiO-protected Model A8037-331, Janos Technology Inc., Townshend, Vt.) mounted on a mirror holder 36 that is, in turn, mounted on an XYZ translator 38. […] With each trigger pulse, the spectrograph 26 measures and auto-saves the fluorescence spectrum generated by the corresponding laser pulse.
The cornea 24 was placed epithelium-up (with the exception of the cornea in Example 4) on a circular aluminum tray 42. […] The laser 22 was set to ablate the cornea at 4-Hz for a period of about 7-minutes and the fluorescence spectrum generated by each pulse was measured and saved. […]
In each set of experiments, the measured fluorescence spectra are corrected for dark current and background light, and each spectrum is smoothed using a 5-point moving average window. The series of spectra measured from a given cornea are normalized by the peak value of the first spectrum in the series (i.e. the spectrum of the corneal surface). […]

Question: For `O=C(O)c1cn(C2CC2)c2cc(N3CCNCC3)c(F)cc2c1=O` [Ciprofloxacin, ciprofloxacin], which “Antibiotic Penetration Depth (individual cases)” value (enucleated rabbit globes, topical 4 drops for 10 min, then 3 drops for 5 min, rinsed with lactated Ringer's, single cornea per case) is on record?
Answer: 0.6 μm and 1.5 μm and 0.9 μm

Question: What about the “Antibiotic Penetration Depth (Mean)” value (enucleated rabbit globes, topical 4 drops for 10 min, then 3 drops for 5 min) of the same compound?
Answer: 1.0 μm

Question: And the “Antibiotic Penetration Depth (Mean)” value (enucleated rabbit globes, topical 4 drops for 10 min, then 3 drops for 5 min, listed as ciprofloxacin)?
Answer: 1.0±0.5 μm

Question: For `COc1c(N2CCNC(C)C2)c(F)cc2c(=O)c(C(=O)O)cn(C3CC3)c12` (stereo not shown) [Gatifloxacin, gatifloxacin], which “Penetration of the corneal epithelium (in words)” value is on record?
Answer: penetrate the epithelium significantly more than ciprofloxacin
